Results published in US6521669B1, “Hydroxystilbene compounds for reducing/inhibiting protein glycation” (Societe L'Oreal S.A., priority 1999, dated 2003).

Columns and labels:
bovine serum albumin = bovine serum albumin (Bos taurus, UniProt P02769); assay: Glycation of bovine serum albumin with D-ribose, AGE fluorescence (Experiment 1); assay type: biochemical
Procedure: The glycation was evaluated by measuring the fluorescence of the AGEs at λem.=440 nm emitted by each sample after excitation at λex.=370 nm. The inhibition of glycation was visualized by the decrease in fluorescence compared with the sample treated with sugar alone.

[1] = test system: human hair proteins (keratins); assay: Glycation of isolated human hair proteins (keratins) with ribose, glycation index (Experiment 2); assay type: biochemical; settings: 50 mM ribose, 50° C., 14 days
Procedure: The glycation reaction was modelled in vitro in a biochemical model using human hair proteins (keratins) as a support for glycation with ribose. The test system consisted of isolated hair, incubated in a phosphate buffer (0.2M, pH=7.4) containing 50 mM of ribose (origin: Sigma). […] The assembly was incubated at 50° C. in the absence of light and air for 14 days. Control samples, incubated in the presence and absence of ribose, were tested in parallel. After incubation for 14 days, the incubation media were removed and the hair was washed with a solution containing 10 μM of guanidium chloride and then in water of MilliQ grade in order to remove all trace of free ribose. The hair was then placed in a solution containing 50% (v/v) of ethanol and 50 mM of DTT for 15 minutes at 37° C. After washing, the samples were placed in a solution containing 10 mM of 5,5′-dithiobis-2-nitrobenzoic acid. The absorbance relating to the free […] residues was measured at 415 nm. The samples were then washed in a 50% (v/v) ethanol solution and then heated for 30 minutes at 100° C. in a 2M hydrazine monohydrate solution (pH 9.4). After addition of a 1 mg/ml solution of phenylhydrazine in a 40% (v/v) acetic acid solution, the samples were incubated for [lacuna] 60° C. and the absorbance relating to the glycated proteins was measured at 390 nm. For each sample, the glycation index was evaluated by the ratio between the absorbance at 390 nm and the absorbance at 415 nm. [formula] The groups of data (control group and treated groups) were processed by means of a variance analysis (ANOVA), followed by a Dunett test.

Sequence of bovine serum albumin (P02769 25-607): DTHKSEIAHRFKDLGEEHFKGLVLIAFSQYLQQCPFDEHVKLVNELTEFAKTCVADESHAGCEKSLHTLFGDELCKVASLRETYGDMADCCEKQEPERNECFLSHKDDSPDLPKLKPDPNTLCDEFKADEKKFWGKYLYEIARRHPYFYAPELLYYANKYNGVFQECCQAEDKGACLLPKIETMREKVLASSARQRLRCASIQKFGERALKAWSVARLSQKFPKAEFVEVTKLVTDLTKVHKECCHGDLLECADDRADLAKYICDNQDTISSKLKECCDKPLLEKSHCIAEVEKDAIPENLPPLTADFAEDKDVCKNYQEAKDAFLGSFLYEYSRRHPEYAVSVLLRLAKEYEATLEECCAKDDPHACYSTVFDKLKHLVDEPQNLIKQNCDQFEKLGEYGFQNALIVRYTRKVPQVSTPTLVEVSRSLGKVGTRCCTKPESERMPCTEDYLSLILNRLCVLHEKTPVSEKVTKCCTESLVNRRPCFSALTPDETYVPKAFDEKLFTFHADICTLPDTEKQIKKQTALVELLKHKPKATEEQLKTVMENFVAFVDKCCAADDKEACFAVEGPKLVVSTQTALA

Oc1ccc(C=Cc2cc(O)cc(O)c2)cc1 [resveratrol, 3,5,4′-trihydroxystilbene]
inhibition at 1 µM (bovine serum albumin): 17%
inhibition at 10 µM (bovine serum albumin): 29.8%
% Inhibition ([1]; resveratrol 10^−4 M): 80%
% Inhibition ([1]; resveratrol 10^−5 M): 51%
% Inhibition ([1]; resveratrol 10^−6 M): 59%
% Inhibition ([1]; resveratrol 10^−7 M): 45%
